The first experiment concerns HIV-IIIb. As to the kind of experiment: Test A: Antiviral Assay in MT4 Cells. Format: cell-based. The following applies: Human immunodeficiency virus 1, IIIB, MT4, 120 h, Table 1; MT-4 cells infected with HIV-IIIb, 5 days of incubation, CellTiter-Glo; read-out: EC50. The protocol: The antiviral properties of a compound of the invention may be determined using Test A described below.
Test A: Antiviral Assay in MT4 Cells
For the antiviral assay utilizing MT-4 cells, 0.4 μL of […] test concentration of 3-fold serially diluted compound in DMSO was added to 40 μL of cell growth medium (RPMI 1640, 10% FBS, 1% penicilline/Streptomycine, 1% L-Glutamine, 1% HEPES) in each well of 384-well assay plates (10 concentrations) in quadruplicate.
One mL aliquots of 2×10e6 MT-4 cells were pre-infected for 1 and 3 hours respectively, @ 37° C. with 25 uL (MT4) or of either cell growth medium (mock-infected) or a fresh 1:250 dilution of an HIV-IIIb concentrated ABI stock (0.004m.o.i. for MT4 cells). Infected and uninfected cells were diluted in cell growth medium and 35 uL of 2000 (for MT4) cells was added to each well of the assay plates.
Assay plates were then incubated in a 37° C. incubator. After 5 days of incubation, […] of 2× concentrated CellTiter-Glo™ Reagent (catalog #G7573, Promega Biosciences, Inc., Madison, Wis.) was added to each well of the assay plate. Cell lysis was carried out by incubating at room temperature for 2-3 min and then chemiluminescence was read using the Envision reader (PerkinElmer). […]
Take `Cc1cc2nc(N3CC(F)C3)sc2c(-c2ccc3c4c(ccnc24)CCO3)c1[C@H](OC(C)(C)C)C(=O)O` (atropisomer, axis not shown) [Compound 56, (S)-2-tert-butoxy-2-((S)-7-(2,3-dihydropyrano[4,3,2-de]quinolin-7-yl)-2-(3-fluoroazetidin-1-yl)-5-methylbenzo[d]thiazol-6-yl)acetic acid]: the EC50 is 62.4 nM.
`Cc1cc2nc(N3CC(C)C3)sc2c(-c2ccc3c4c(ccnc24)CCO3)c1[C@H](OC(C)(C)C)C(=O)O` (atropisomer, axis not shown) [Compound 57, (S)-2-tert-butoxy-2-((S)-7-(2,3-dihydropyrano[4,3,2-de]quinolin-7-yl)-5-methyl-2-(3-methylazetidin-1-yl)benzo[d]thiazol-6-yl)acetic acid]: the EC50 came out at 147 nM.
Same read-out and setting: as for `Cc1cc2nc(N3CC(S(C)(=O)=O)C3)sc2c(-c2ccc3c4c(ccnc24)CCO3)c1[C@H](OC(C)(C)C)C(=O)O` (atropisomer, axis not shown) [Compound 58, (S)-2-tert-butoxy-2-((S)-7-(2,3-dihydropyrano[4,3,2-de]quinolin-7-yl)-5-methyl-2-(3-(methylsulfonyl)azetidin-1-yl)benzo[d]thiazol-6-yl)acetic acid], the figure is 3520 nM; as for `Cc1c([C@H](OC(C)(C)C)C(=O)O)c(-c2ccc3c4c(ccnc24)CCO3)c2sc(N3CCC3)nc2c1F` (atropisomer, axis not shown) [Compound 76, (S)-2-((S)-2-(azetidin-1-yl)-7-(2,3-dihydropyrano[4,3,2-de]quinolin-7-yl)-4-fluoro-5-methylbenzo[d]thiazol-6-yl)-2-tert-butoxyacetic acid], 26 nM; as for `CCC(C)(C)O[C@H](C(=O)O)c1c(C)cc2nc(N3CCC3)sc2c1-c1ccc2c3c(ccnc13)CCO2` (atropisomer, axis not shown) [Compound 89, (S)-2-((S)-2-(azetidin-1-yl)-7-(2,3-dihydropyrano[4,3,2-de]quinolin-7-yl)-5-methylbenzo[d]thiazol-6-yl)-2-(tert-pentyloxy)acetic acid], 36.6 nM.
For `Cc1cc2nc(-c3cccc(-c4ccc5c(cnn5C)c4)c3)sc2c(-c2cc(F)c3c(c2C)C(=O)CCO3)c1[C@H](OC(C)(C)C)C(=O)O` (atropisomer, axis not shown) [Compound 167], the EC50 was found to be 39 nM.
On to `Cc1cc2nc(-c3cccc(-c4ccc5c(cnn5C)c4)c3)sc2c(-c2cc(F)c3c(c2C)CCCO3)c1[C@H](OC(C)(C)C)C(=O)O` (atropisomer, axis not shown) [Compound 168], for which the EC50 was 42 nM.
Still for that read-out and setting: as for `COc1cncc(-c2cc(-c3nc4cc(C)c([C@H](OC(C)(C)C)C(=O)O)c(-c5ccc(Cl)cc5)c4s3)ccn2)c1` [Compound 105, (S)-2-tert-butoxy-2-(7-(4-chlorophenyl)-2-(5′-methoxy-2,3′-bipyridin-4-yl)-5-methylbenzo[d]thiazol-6-yl)acetic acid], the figure is 16 nM; as for `Cc1cc2nc(-c3cccc(-c4cncnc4)c3)sc2c(-c2ccc(Cl)cc2)c1[C@H](OC(C)(C)C)C(=O)O` [Compound 106, (S)-2-tert-butoxy-2-(7-(4-chlorophenyl)-5-methyl-2-(3-(pyrimidin-5-yl)phenyl)benzo[d]thiazol-6-yl)acetic acid], 103 nM; as for `Cc1cc2nc(-c3ccnc(-c4ccc5cnn(C)c5c4)c3)sc2c(-c2ccc(Cl)cc2)c1[C@H](OC(C)(C)C)C(=O)O` [Compound 108, (S)-2-tert-butoxy-2-(7-(4-chlorophenyl)-5-methyl-2-(2-(1-methyl-1H-indazol-6-yl)pyridin-4-yl)benzo[d]thiazol-6-yl)acetic acid], 33 nM.
Same read-out and setting: the figure for `Cc1cc2nc(-c3ccnc(-c4ccc5c(cnn5C)c4)n3)sc2c(-c2ccc(Cl)cc2)c1[C@H](OC(C)(C)C)C(=O)O` [Compound 110, (S)-2-tert-butoxy-2-(7-(4-chlorophenyl)-5-methyl-2-(2-(1-methyl-1H-indazol-5-yl)pyrimidin-4-yl)benzo[d]thiazol-6-yl)acetic acid] is 14 nM.

The experiment is the same for the next values; noted with them: Human immunodeficiency virus 1, IIIB, MT4, 120 h, Table 2; MT-4 cells infected with HIV-IIIb, 5 days of incubation, CellTiter-Glo; read-out: EC50.
As for `Cc1cc2nc(-c3ccnc(N4CCN(C(C)C)CC4C)n3)sc2c(-c2ccc(Cl)cc2)c1[C@H](OC(C)(C)C)C(=O)O` (stereo in doubt) [Compound 467, (S)-2-tert-butoxy-2-(7-(4-chlorophenyl)-2-(2-((R)-4-isopropyl-2-methylpiperazin-1-yl)pyrimidin-4-yl)-5-methylbenzo[d]thiazol-6-yl)acetic acid], the 50% effective concentration (EC50) turned out to be 5 nM.

Staying with this experiment, now noted: Table 1; MT-4 cells infected with HIV-IIIb, 5 days of incubation, CellTiter-Glo; read-out: EC50.
For `Cc1cc2nc(N3CCCC3)sc2c(-c2ccc3c4c(ccnc24)CCO3)c1[C@H](OC(C)(C)C)C(=O)O` (atropisomer, axis not shown) [Compound 50, (S)-2-tert-butoxy-2-((S)-7-(2,3-dihydropyrano[4,3,2-de]quinolin-7-yl)-5-methyl-2-(pyrrolidin-1-yl)benzo[d]thiazol-6-yl)acetic acid], the EC50 is 52.8 nM.
For the molecule `Cc1cc2nc(N3CCCC3)sc2c(-c2ccc3c4c(ccnc24)CCO3)c1[C@H](OC(C)(C)C)C(=O)O` (atropisomer, axis not shown) [Compound 51, (S)-2-tert-butoxy-2-((R)-7-(2,3-dihydropyrano[4,3,2-de]quinolin-7-yl)-5-methyl-2-(pyrrolidin-1-yl)benzo[d]thiazol-6-yl)acetic acid], the EC50 amounted to 5250 nM.
Regarding `Cc1cc2nc(N3CC(F)(F)C3)sc2c(-c2ccc3c4c(ccnc24)CCO3)c1[C@H](OC(C)(C)C)C(=O)O` (atropisomer, axis not shown) [Compound 52, (S)-2-tert-butoxy-2-((S)-2-(3,3-difluoroazetidin-1-yl)-7-(2,3-dihydropyrano[4,3,2-de]quinolin-7-yl)-5-methylbenzo[d]thiazol-6-yl)acetic acid], the EC50 worked out at 53.4 nM.
On the same count and under the same terms, the figure for `Cc1cc2nc(N3CC(F)(F)C3)sc2c(-c2ccc3c4c(ccnc24)CCO3)c1[C@H](OC(C)(C)C)C(=O)O` (atropisomer, axis not shown) [Compound 53, (S)-2-tert-butoxy-2-((R)-2-(3,3-difluoroazetidin-1-yl)-7-(2,3-dihydropyrano[4,3,2-de]quinolin-7-yl)-5-methylbenzo[d]thiazol-6-yl)acetic acid] is 37500 nM; for `COC1CN(c2nc3cc(C)c([C@H](OC(C)(C)C)C(=O)O)c(-c4ccc5c6c(ccnc46)CCO5)c3s2)C1` (atropisomer, axis not shown) [Compound 54, (S)-2-tert-butoxy-2-((S)-7-(2,3-dihydropyrano[4,3,2-de]quinolin-7-yl)-2-(3-methoxyazetidin-1-yl)-5-methylbenzo[d]thiazol-6-yl)acetic acid] it is 274 nM; for `COC1CN(c2nc3cc(C)c([C@H](OC(C)(C)C)C(=O)O)c(-c4ccc5c6c(ccnc46)CCO5)c3s2)C1` (atropisomer, axis not shown) [Compound 55, (S)-2-tert-butoxy-2-((R)-7-(2,3-dihydropyrano[4,3,2-de]quinolin-7-yl)-2-(3-methoxyazetidin-1-yl)-5-methylbenzo[d]thiazol-6-yl)acetic acid] it is 53000 nM.
On the same count and under the same terms, the figure for `Cc1cc2nc(-c3cccc(-c4ccc5c(cnn5C)c4)c3)sc2c(-c2ccc3c4c(ccnc24)CCO3)c1[C@H](OC(C)(C)C)C(=O)O` (atropisomer, axis not shown) [Compound 164] is 483 nM.

For the origin of these results see patent US8987250B2 (Gilead Sciences, Inc., priority 2012, dated 2015).
